{"source": "ChEMBL document CHEMBL5579832", "about": "“Design, synthesis, and biological evaluation of pyrido[2,3-d]pyrimidin-7(8H)-one derivatives as potent USP1 inhibitors” (Eur J Med Chem, 2024)", "test_system": "NCI-H1299", "assay": "Inhibition of colony formation in human NCI-H1299 cells at 0.5 uM measured after 7 days by SRB staining based assay relative to control", "assay_type": "functional", "details": "NCI-H1299, 168 h, time 7 day"}
{"compound": "COc1ncnc(C2CC2)c1-c1ncc2ccc(=O)n(Cc3ccc(-c4nc(C(F)(F)F)cn4C(C)C)cc3)c2n1", "values": [{"measurement": "inhibition at 0.5 µM", "result": 70, "unit": "%"}]}
